From patent US20070135470A1, “Utilization of vinpocetine to avoid complications in particular those associated to hearing which occur with epilepsy, and treatment thereof” (UNIVERSIDAD NACIONAL AUTONOMA DE MEXICO, priority 2003, published 2007)

System: epileptic cortical activity induced by PTZ in guinea pigs
Assay: EEG recordings of cortical activity in PTZ-induced epilepsy
Format: in vivo, guinea pig
Settings: ictal (about 2 min) and post-ictal (10, 20, 30, 50 min) periods; vinpocetine 2 mg/kg 4 h before PTZ; FIGS. 3, 4
Description: Experiments were performed in pigmented adult male guinea pigs initially weighing 349±38 g. ABRs recordings were used to evaluate the hearing status of each animal and EEG recordings to evaluate changes in cortical excitability. The ABR and EEG recordings were obtained following a method that we have previously reported (Nekrassov and Sitges, 2003). The Institutional Animal Use and Care Committee approved all experimental procedures.
Three types of recordings were performed in the anaesthetized animals, namely the ABR recordings elicited by a stimulus of high intensity (100 dB), the ABR recordings for determination of the auditory threshold and the EEG recordings.
Eight male guinea pigs were entered into this study. PTZ was dissolved in saline and vinpocetine in a saline acidified (with HCl) adjusted to pH 4 (with NaOH). Four hours after injecting guinea pigs with vehicle (acidified saline used to dissolve vinpocetine) the animals were anaesthetized and a first set of ABR and EEG recordings was taken before the injection (i.p) of the convulsing agent, PTZ. The animals were injected with PTZ (100 mg/kg) and about 2 min after injecting PTZ (ictal period) the EEG recording was taken. Then the other series of ABR and EEG recordings were taken at specific times within the post-ictal period. After two weeks the same series of recordings was taken but instead vehicle the animals were injected with vinpocetine (2 mg/kg) 4 hours before the injection of PTZ.
Vinpocetine inhibits all the changes induced by PTZ on the EEG. […] This dramatic change on the cortical activity induced by PTZ in the anaesthetized animals during convulsions is followed by a typical pattern of cortical activity characterized by rhythmic spike bursts of high amplitude. The duration time of this typical pattern of cortical activity, that is not accompanied by convulsions is referred as the post-ictal period.

SMILES: CCOC(=O)C1=C[C@]2(CC)CCCN3CCc4c(n1c1ccccc41)[C@@H]32 [Vinpocetine, ethyl apovincamine-22-oate]
- effect on changes on the cortical activity (EEG) induced by PTZ: completely inhibits
